From publication PMC12298539, “Applying Unbiased, Functional Criteria Allows Selection of Novel Cyclic Peptides for Effective Targeted Drug Delivery to Malignant Prostate Cancer Cells” (Pharmaceutics, 2025)

Experiments:
[1] = tested on: Estramustine-resistant PC3; assay: Growth inhibition IC50, Estramustine-resistant line; type: cell-based; details: Homo sapiens
Procedure: (§1) PrC cell lines resistant to Estramustine (ESM) were developed as the clinical use of this drug induces significant side effects and drug resistance. The procedure of Mohr was used as described in the Supplementary Information.
(§2) Supplementary Information
(§3) Development of drug resistant cell lines
(§4) Cells were seeded in 3 flasks. […]
(§5) parent cell line was calculated. […]
(§6) to the drug within 2–4 weeks.
(§7) Table S1: IC50 values for parent and Estramustine-resistant prostate cancer cell lines are also multidrug re-sistant to Camptothecin and Docetaxel. Drugs
(§8) Estramustine Camptothecin Docetaxel […]

[2] = tested on: Estramustine-resistant 22RV1; assay: as above; type: cell-based; details: Homo sapiens; 22RV1 Estramustine-resistant line
Procedure: as §1, §2, §3, §4, §5, §6, §7, §8

[3] = tested on: Estramustine-resistant DU145; assay: as above; type: cell-based; details: Homo sapiens, DU-145
Procedure: as §1, §2, §3, §4, §5, §6, §7, §8

[4] = tested on: 22RV1; assay: Growth inhibition IC50, parent line; type: cell-based; details: Homo sapiens; 22RV1 parent line
Procedure: as §1, §2, §3, §4, §5, §6, §7, §8

[5] = tested on: DU145; assay: Growth inhibition IC50, parent line; type: cell-based; details: Homo sapiens, DU-145
Procedure: as §1, §2, §3, §4, §5, §6, §7, §8

[6] = tested on: PC3; assay: Growth inhibition IC50, parent line; type: cell-based; details: Homo sapiens, PC-3
Procedure: as §1, §2, §3, §4, §5, §6, §7, §8

[7] = tested on: PrC cell lines; assay: Dose-response of PrC cell lines to ESM; type: cell-based; details: Homo sapiens; range over the PrC cell lines, Figure S2; read-out: IC50s for ESM
Procedure: as §1
ESM-resistant lines developed following more than 6 months of exposure to the drug.
as §2, §3
Cells were seeded in 3 flasks.
parent cell line was calculated.
as §6

[8] = tested on: PC3 tumors; assay: Xenograft anti-tumor efficacy; type: in vivo, athymic nu/nu mice; details: 5 mg/kg, tail vein, twice weekly for four weeks, n = 5
Procedure: As described above, a xenograft tumor model was established by injecting mice with PC3 cells. Tumor growth was monitored regularly, and mice were randomized into one of four groups (n = 5 per group) when their tumor volume reached approximately 140 mm^3 (approx. day 16 post-injection) so as to ensure the equal distribution of tumor burden among the groups. The mice were treated twice weekly for four weeks via tail vein injection as follows. Group 1 (Control) received vehicle only; Group 2 (free SN-38) received SN38 at a dose of 5 mg/kg; Group 3 (PDC 10 mg/kg) received PrC10-SN38 at a dose of 10 mg/kg; Group 4 (PDC 20 mg/kg) received PrC10-SN38 at a dose of 20 mg/kg. Tumor volume was measured regularly until day 44 from the initiation of treatment, after which all mice were euthanized via CO2 inhalation.

SMILES | IC50 [1] | IC50 [2] | IC50 [3] | IC50 [4] | IC50 [5] | IC50 [6] | IC50 [7] | tumor growth [8]
CC[C@@]1(O)C(=O)OCc2c1cc1n(c2=O)Cc2cc3ccccc3nc2-1 [Camptothecin] | 200 nM | 23 nM | 100 nM | 7 nM | 10 nM | 45 nM |  | 
CC(=O)O[C@@]12CO[C@@H]1C[C@H](O)[C@@]1(C)C(=O)[C@H](O)C3=C(C)[C@@H](OC(=O)[C@H](O)[C@@H](NC(=O)OC(C)(C)C)c4ccccc4)C[C@@](O)([C@@H](OC(=O)c4ccccc4)[C@H]21)C3(C)C [Docetaxel] | 10 nM | 4 nM | 5 nM | 3 nM | 3 nM | 4 nM |  | 
C[C@]12CC[C@@H]3c4ccc(OC(=O)N(CCCl)CCCl)cc4CC[C@H]3[C@@H]1CC[C@@H]2O [Estramustine] | 24000 nM | 30000 nM | 8000 nM | 8000 nM | 8000 nM | 10000 nM | 1400 to 1750 nM | 
CCc1c2c(nc3ccc(O)cc13)-c1cc3c(c(=O)n1C2)COC(=O)[C@]3(O)CC [free SN-38, SN-38] |  |  |  |  |  |  |  | did not inhibit tumor growth
